# Reference: patent publication US20210379153A1, “COMBINATION THERAPIES COMPRISING SIRP ALPHA-BASED CHIMERIC PROTEINS” (Shattuck Labs, Inc., priority 2018, published 2021)
# Values joined by “and” are separate entries in the source; they are usually repeats but may differ in a detail not shown here. Equal values may be shown once.
# Assays:
# tumors [1] = test: In vivo tumor model, SIRPα-Fc-LIGHT with anti-PD-1 (Example 15); set-up: species or system mice; details: combination with anti-PD-1 antibody
# Method: The in vivo ability of combinations of the SIRPα-Fc-LIGHT chimeric protein with anti-PD-1 antibodies to target and treat tumors was determined. (FIG. 26A and FIG. 26B) FIG. 26C and FIG. 26D include data relevant to the graphs of FIG. 26A and FIG. 26B.
# tumors [2] = test: In vivo tumor model, SIRPα-Fc-OX40L with checkpoint antibodies (Example 14); set-up: species or system mice; details: chimeric protein alone
# Method: The in vivo ability of combinations of the SIRPα-Fc-OX40L chimeric protein with anti-CTLA-4 antibodies or the SIRPα-Fc-OX40L chimeric protein with anti-PD-1 antibodies to target and treat tumors was determined.
# [3] = test system: IRF-inducible ISG reporter in RAW264.7 cells; test: RAW264.7-ISG interferon reporter cells co-cultured with A20 lymphoma cells; assay type: cell-based, mouse; details: monotherapy; 50 mg/mL proteins, 1 mg/mL anti-mCD20; 24 hours
# Method: FIG. 8D: Macrophage:Toledo lymphoma co-cultures were harvested 2 hours into phagocytosis assays in the presence of rituximab ([…]), SIRPα-Fc-CD40L ([…]), or the combination of both agents. Macrophages were isolated by CD11b+ FACS, RNA was prepared, cDNA synthesized, and gene expression (IFNa1, IFNb1, CD80, and CD86) assessed by qRT-PCR. Fold change was calculated using DDCT and values obtained from the housekeeping gene ACTB, and the corresponding values from untreated samples. […] After 2 hours, co-cultures were isolated from tissue culture vessels and were stained with a fluorescently conjugated CD11b antibody to discriminate macrophages. Cells were then assessed by flow cytometry for the co-localization of fluorescent signal from both cells types. […] After 24-hours type I interferon induced luminescence was assessed using a luminometer. The maximum luminescence (RLU) from each experiment was set to 1, and all other samples were normalized accordingly. […]
# Additionally, a macrophage reporter system was used to detect activation. […] After 24 hours, culture supernatant was collected and assessed for luciferase activity, which would indicate activation of a type I interferon response in the RAW-ISG reporter cells. […]
# FcγR-Ia = FcγR-Ia (Homo sapiens, UniProt P12314); test: SPR binding to Fc receptor FcγR-Ia
# FcγR-Ia, sequence (P12314 16-374): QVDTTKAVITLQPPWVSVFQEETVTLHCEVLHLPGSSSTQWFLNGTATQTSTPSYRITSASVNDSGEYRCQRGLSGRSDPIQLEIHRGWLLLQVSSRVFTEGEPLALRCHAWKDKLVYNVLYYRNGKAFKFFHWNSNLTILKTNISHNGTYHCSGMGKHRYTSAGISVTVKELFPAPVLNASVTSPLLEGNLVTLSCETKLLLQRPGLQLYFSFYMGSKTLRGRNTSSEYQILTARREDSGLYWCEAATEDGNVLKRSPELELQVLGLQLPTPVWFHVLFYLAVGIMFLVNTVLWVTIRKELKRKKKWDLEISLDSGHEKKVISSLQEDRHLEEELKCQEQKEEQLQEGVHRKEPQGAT
# Description: Scale is shown and yellow arrows correspond with each identified monomer. A schematic of the hexamer species is shown to the right, depicting dimerization of the Fc domain and trimerization of the CD40L domain. […] Recombinant hSIRPα-Fc, hCD40L-Fc, and hIgG1 were used as positive controls. […] In both panels, the CHOK1 Parental is on the left and the CHOK1/hCD47 is on the right. […] For both graphs, the CHOK1 Parental is on the bottom. […] In this figure, the control is the top curve, the SIRPα-Fc-CD40L is the middle curve, and the anti-CD47 is the bottom curve.
# The extracellular domain (ECD) of SIRPα and the ECD of CD40L were fused via an antibody Fc domain to generate SIRPαECD-Fc-CD40LECD chimeric proteins. When human proteins were used, the chimeric protein is referred to as hSIRPα-Fc-CD40L; when murine proteins were used, the chimeric protein is referred to as and mSIRPα-Fc-CD40L. […] The purified protein was then analyzed for the presence of each individual domain by Western blotting using anti-SIRPα, anti-Fc, and anti-CD40L antibodies (FIG. 3A, bottom). […] Next, binding affinities for SIRPα-Fc-CD40L to recombinant CD47, CD40, or Fc receptors were evaluated by surface plasmon resonance (SPR). […] A functional ELISA evaluated whether SIRPα-Fc-CD40L could outcompete a commercially available single-sided SIRPα-Fc control for binding to recombinant CD47 (FIG. 3H).
# FcγR-IIb = target: T1, FcγR-IIb (Homo sapiens, UniProt P31994); test: SPR binding to Fc receptor FcγR-IIb
# T1 sequence (P31994 43-310): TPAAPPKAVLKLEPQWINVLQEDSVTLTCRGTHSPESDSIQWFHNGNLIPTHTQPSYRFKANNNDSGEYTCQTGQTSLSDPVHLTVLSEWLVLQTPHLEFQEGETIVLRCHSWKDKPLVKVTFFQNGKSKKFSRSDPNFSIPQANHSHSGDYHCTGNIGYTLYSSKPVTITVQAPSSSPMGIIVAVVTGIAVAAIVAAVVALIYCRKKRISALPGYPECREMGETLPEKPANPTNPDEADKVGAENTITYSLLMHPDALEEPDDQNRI
# Description: (§1) The extracellular domain (ECD) of SIRPα and the ECD of CD40L were fused via an antibody Fc domain to generate SIRPαECD-Fc-CD40LECD chimeric proteins. When human proteins were used, the chimeric protein is referred to as hSIRPα-Fc-CD40L; when murine proteins were used, the chimeric protein is referred to as and mSIRPα-Fc-CD40L. Generically, the chimeric protein is referred to as SIRPα-Fc-CD40L. […] Mammalian cells were then transfected with the hSIRPα-Fc-CD40L expressing construct, and the secreted protein was purified from conditioned media by affinity chromatography. The purified protein was then analyzed for the presence of each individual domain by Western blotting using anti-SIRPα, anti-Fc, and anti-CD40L antibodies (FIG. 3A, bottom). […] The reduced and deglycosylated form of the protein migrated at the predicted monomeric molecular weight of 90.1 kDa. […] Next, binding affinities for SIRPα-Fc-CD40L to recombinant CD47, CD40, or Fc receptors were evaluated by surface plasmon resonance (SPR). […] Finally, to confirm that SIRPα-Fc-CD40L interacted with native CD47 and CD40 in a similar manner to recombinant CD47 and CD40, CHOK1-hCD47 and CHOK1-hCD40 reporter cell lines were developed (FIG. 3F). […] A functional ELISA evaluated whether SIRPα-Fc-CD40L could outcompete a commercially available single-sided SIRPα-Fc control for binding to recombinant CD47 (FIG. 3H).
# FcγR-IIIb = FcγR-IIIb (Homo sapiens, UniProt O75015); test: SPR binding to Fc receptor FcγR-IIIb
# FcγR-IIIb, sequence (O75015 17-200): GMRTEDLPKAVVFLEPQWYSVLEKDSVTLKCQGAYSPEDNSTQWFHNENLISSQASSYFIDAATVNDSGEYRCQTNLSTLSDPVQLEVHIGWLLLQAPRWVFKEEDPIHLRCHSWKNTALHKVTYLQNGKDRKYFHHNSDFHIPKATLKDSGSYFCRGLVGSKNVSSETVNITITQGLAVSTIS
# Description: as §1
# [4] = test system: CD8+ T cell-depleted PBMC; test: Proliferation of CD8+ T cell-depleted PBMC ([3H]-thymidine); assay type: cell-based, human; details: 0.3, 3, 30, or 300 nM; 7-day culture; 33-50 donors
# Method: (§2) Here, proliferation was assessed via [^3H]-Thymidine incorporation on days 5, 6, and 7. The order of samples (in triplicate) along the X-axis is media only, KLH, Exenatide, 0.3 nm SIRPα-Fc-CD40L, 3 nm SIRPα-Fc-CD40L, 30 nm SIRPα-Fc-CD40L and 300 nm SIRPα-Fc-CD40L. […] Here, proliferation was assessed by ELISpot. The order of samples (in triplicate) along the X-axis is media only, KLH, Exenatide, 0.3 nm SIRPα-Fc-CD40L, 3 nm SIRPα-Fc-CD40L, 30 nm SIRPα-Fc-CD40L and 300 nm SIRPα-Fc-CD40L.
# (§3) The observation that SIRPα-Fc-CD40L stimulated CD40 signaling prompted investigation of other cellular functions that depend upon CD40 signaling. CD8+ T cell-depleted PBMC were isolated from a total of 33-50 different human donors and cultured in the presence of a dose-titration of hSIRPα-Fc-CD40L (FIG. 6A and FIG. 6B).
# [5] = test system: CD8+ T cell-depleted PBMC; test: IL-2 ELISpot of CD8+ T cell-depleted PBMC; assay type: cell-based, human; details: day 8 of the culture
# Method: as §2, §3
# [6] = Repeat-dose safety and activity study in cynomolgus macaques; assay type: in vivo; details: IV infusion weekly for five weeks; 0.1, 1, 10 and 40 mg/kg
# Method: FIG. 21 is a graph showing cynomolgus macaques that were treated with vehicle, or 0.1, 1, 10, and 40 mg/kg of SIRPα-Fc-CD40L. Blood chemistry analysis assessed peripheral erythrocyte counts, hemoglobin levels, and hematocrit. In addition, the fold-change in lymphocyte count from pre-dose to 24 hours post-dose is shown.
# The experiments of this example tested the safety and activity of the human SIRPα-Fc-CD40L chimeric protein following repeat doses in cynomolgus macaques. Briefly, naïve cynomolgus macaques were administered the human SIRPα-Fc-CD40L chimeric protein by intravenous infusion every week, for five consecutive weeks, at doses of 0.1, 1, 10 and 40 mg/kg. Standard hematology and clinical chemistry parameters were collected before and after each dose.
# Receptor occupancy was evaluated on circulating CD40+ lymphocytes.
# [7] = target: T2, recombinant mouse CD47 (mouse) (UniProt Q61735); test: dual ELISA: coat mCD47-Fc, detect mCD40-His, tertiary anti-his-HRP, OD450
# T2 sequence (looked up): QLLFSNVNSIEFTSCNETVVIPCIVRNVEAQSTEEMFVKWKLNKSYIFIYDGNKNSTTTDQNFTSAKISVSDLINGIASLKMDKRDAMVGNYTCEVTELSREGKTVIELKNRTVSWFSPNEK
# [8] = test system: IFNα1, IFNβ1, CD80 and CD86 expression in macrophages; test: qRT-PCR of macrophages sorted from macrophage:Toledo lymphoma co-cultures; assay type: cell-based, human; set-up: macrophage activation and type I interferon gene expression: dose or concentration left out as unconfirmed; details: monotherapy; 2 hours
# Method: FIG. 8D: Macrophage:Toledo lymphoma co-cultures were harvested 2 hours into phagocytosis assays in the presence of rituximab ([…]), SIRPα-Fc-CD40L ([…]), or the combination of both agents. Macrophages were isolated by CD11b+ FACS, RNA was prepared, cDNA synthesized, and gene expression (IFNa1, IFNb1, CD80, and CD86) assessed by qRT-PCR. Fold change was calculated using DDCT and values obtained from the housekeeping gene ACTB, and the corresponding values from untreated samples. […] After 2 hours, co-cultures were isolated from tissue culture vessels and were stained with a fluorescently conjugated CD11b antibody to discriminate macrophages. Cells were then assessed by flow cytometry for the co-localization of fluorescent signal from both cells types. Identical assays were set up where macrophages were pre-incubated for 1 hour with 20 μg/mL of a commercially available Fc block cocktail or with 20 μg/mL of a CD40 blocking antibody or with 5 μg/mL of a calreticulin blocking peptide. FIG. 8G: RAW 264.7-Lucia ISG cells were cultured with A20 lymphoma cells in the presence of […] of mSIRPα-Fc-CD40L, recombinant Fc-mCD40L, mSIRPα-Fc, or their combination, 1 mg/mL anti-mCD20, or the combination of mSIRPα-Fc-CD40L and anti-mCD20. After 24-hours type I interferon induced luminescence was assessed using a luminometer. The maximum luminescence (RLU) from each experiment was set to 1, and all other samples were normalized accordingly. Values from repeat experiments are shown.
# RNA was prepared from macrophages isolated using fluorescent activated cell sorting (FACS) from SIRPα-Fc-CD40L/Rituximab treated co-cultures macrophages and Toledo lymphoma cells. The RNA was assessed by qRT-PCR for expression of IFNα1 and IFNβ1, and the macrophage activation markers CD80 and CD86.
substance,measurement,setting,value
"SIRPα(CD172a)-Fc-LIGHT: ECD of SIRPα, hinge-CH2-CH3 Fc linker and ECD of LIGHT (SEQ ID NO: 63)",survival,tumors [1],any survivors by the twenty-fifth day
same,tumor size,tumors [1],most effective in reducing tumor size
same,rejection of secondary tumor challenge,tumors [1]; no additional treatment,66.6%
SIRPα(CD172a)-Fc-OX40L: ECD of SIRPα and ECD of OX40L fused via an antibody Fc domain (SEQ ID NO: 61),survival,tumors [2],any survivors by the sixteenth day
same,tumor size,tumors [2],effective in reducing tumor size
SIRPα-Fc: recombinant single-sided SIRPα-Fc protein [reference compound],interferon gene-driven luciferase activity (type I IFN response),[3],no significant signal
hSIRPα-Fc-CD40L: chimeric protein: ECD of human SIRPα fused via an antibody Fc domain to ECD of human CD40L (SEQ ID NO: 60),binding,FcγR-Ia,undetectable binding
same,binding,FcγR-IIb,undetectable binding
same,binding,FcγR-IIIb,undetectable binding
same,proliferation of human PBMC,[4],dose-dependent proliferation
same,number of IL-2-secreting PBMC,[5],dose-dependent increase
same,hemolysis,[6],no evidence
same,thrombocytopenia,[6],no evidence
mSIRPα-Fc-CD40L chimeric protein (murine SIRPα ECD - Fc - murine CD40L ECD) (from UniProt P97797 32-373; P27548 47-260) (Fc fusion),EC50,[7],7.37 nM and 8.73 nM
rituximab: anti-CD20 antibody [reference compound],macrophage activation and type I interferon gene expression,[8],induced macrophage activation and the expression of type I interferon genes
